Results: ChEMBL document CHEMBL4373665, “Discovery of new non-acidic lonazolac analogues with COX-2 selectivity as potent anti-inflammatory agents” (Medchemcomm, 2019)

Columns and labels:
[1] = Nephrotoxicity in rat assessed as effect on proximal tubule at 50 mg/kg by hematoxylin and eosin staining based assay; type: toxicity, organism-based; conditions: in vivo
[2] = Ulcerogenic activity in rat assessed as incidence of gastric ulceration at 50 mg/kg, sc qd for 4 days post 18 hrs fasting measured after 4 days relative to control; type: toxicity, organism-based; conditions: in vivo, 96 h
[3] = Ulcerogenic activity in rat assessed as ulcer index at 50 mg/kg, sc qd for 4 days post 18 hrs fasting measured after 4 days; type: toxicity, organism-based; conditions: in vivo, 96 h
[4] = species on record: Homo sapiens; experiment: Selectivity index, ratio of IC50 for human recombinant COX1 to IC50 for human recombinant COX2 using arachidonic acid as substrate
[5] = test system: Rattus norvegicus; experiment: Anti-inflammatory activity in albino rat model of carrageenan-induced paw edema assessed as inhibition of carrageenan-induced paw edema at 100 mg/kg, po administered as single dose prior to carrageenan challenge measured after 1 hr relative to control; type: functional
[6] = test system: Rattus norvegicus; experiment: Anti-inflammatory activity in albino rat model of carrageenan-induced paw edema assessed as inhibition of carrageenan-induced paw edema at 100 mg/kg, po administered as single dose prior to carrageenan challenge measured after 12 hrs relative to control; type: functional
[7] = Ulcerogenic activity in rat assessed as effect on gastric submucosa at 50 mg/kg by hematoxylin and eosin staining based assay; type: toxicity, organism-based; conditions: in vivo
[8] = target: T1, Prostaglandin G/H synthase 2 (Homo sapiens, UniProt P35354); experiment: Inhibition of human recombinant COX2 assessed as decrease in prostaglandin production using arachidonic acid as substrate pretreated for 15 mins followed by substrate addition and measured after 2 mins by enzyme immunoassay
T1 sequence (P35354 whole entry): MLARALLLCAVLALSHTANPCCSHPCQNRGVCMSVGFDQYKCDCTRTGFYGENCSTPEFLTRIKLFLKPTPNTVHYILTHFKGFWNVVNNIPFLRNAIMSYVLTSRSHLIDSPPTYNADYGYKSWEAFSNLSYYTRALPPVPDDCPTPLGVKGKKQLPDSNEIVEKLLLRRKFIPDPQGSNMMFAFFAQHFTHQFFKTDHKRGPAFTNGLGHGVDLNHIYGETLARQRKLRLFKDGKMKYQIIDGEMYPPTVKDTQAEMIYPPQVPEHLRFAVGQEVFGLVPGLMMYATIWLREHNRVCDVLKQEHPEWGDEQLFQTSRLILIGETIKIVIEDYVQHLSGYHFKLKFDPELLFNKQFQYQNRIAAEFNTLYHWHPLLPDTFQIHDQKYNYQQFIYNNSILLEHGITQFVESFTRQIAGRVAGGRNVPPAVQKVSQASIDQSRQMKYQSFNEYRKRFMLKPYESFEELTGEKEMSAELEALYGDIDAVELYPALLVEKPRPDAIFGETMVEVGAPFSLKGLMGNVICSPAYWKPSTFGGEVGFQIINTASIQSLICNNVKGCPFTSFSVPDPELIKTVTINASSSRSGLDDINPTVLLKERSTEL

[9] = test system: Rattus norvegicus; experiment: Anti-inflammatory activity in albino rat model of carrageenan-induced paw edema assessed as inhibition of carrageenan-induced paw edema at 100 mg/kg, po administered as single dose prior to carrageenan challenge measured after 8 hrs relative to control; type: functional
[10] = target: Prostaglandin G/H synthase 1 (Homo sapiens, UniProt P23219); experiment: Inhibition of human recombinant COX1 assessed as decrease in prostaglandin production using arachidonic acid as substrate pretreated for 15 mins followed by substrate addition and measured after 2 mins by enzyme immunoassay; type: single protein
[11] = Hepatotoxicity in rat assessed as effect on portal veins at 50 mg/kg by hematoxylin and eosin staining based assay; type: toxicity, organism-based; conditions: in vivo
[12] = Ulcerogenic activity in rat assessed as effect on mucosal blood vessel at 50 mg/kg by hematoxylin and eosin staining based assay; type: toxicity, organism-based; conditions: in vivo
[13] = Hepatotoxicity in rat assessed as effect on hepatocytes in periportal area at 50 mg/kg by hematoxylin and eosin staining based assay; type: toxicity, organism-based; conditions: in vivo
[14] = Hepatotoxicity in rat assessed as effect on central veins in liver at 50 mg/kg by hematoxylin and eosin staining based assay; type: toxicity, organism-based; conditions: in vivo
[15] = Ulcerogenic activity in rat assessed as effect on gastric mucosa at 50 mg/kg by hematoxylin and eosin staining based assay; type: toxicity, organism-based; conditions: in vivo
[16] = Nephrotoxicity in rat assessed as effect on distal tubule at 50 mg/kg by hematoxylin and eosin staining based assay; type: toxicity, organism-based; conditions: in vivo
[17] = Ulcerogenic activity in rat assessed as effect on parietal cells at 50 mg/kg by hematoxylin and eosin staining based assay; type: toxicity, organism-based; conditions: in vivo
[18] = test system: Rattus norvegicus; experiment: Anti-inflammatory activity in albino rat model of carrageenan-induced paw edema assessed as inhibition of carrageenan-induced paw edema at 100 mg/kg, po administered as single dose prior to carrageenan challenge measured after 4 hrs relative to control; type: functional
[19] = test system: Rattus norvegicus; experiment: Anti-inflammatory activity in albino rat model of carrageenan-induced paw edema assessed as inhibition of carrageenan-induced paw edema at 100 mg/kg, po administered as single dose prior to carrageenan challenge measured after 3 hrs relative to control; type: functional
[20] = Nephrotoxicity in rat assessed as effect on glomeruli at 50 mg/kg surrounded by Bowmann's capsule by hematoxylin and eosin staining based assay; type: toxicity, organism-based; conditions: in vivo
[21] = Ulcerogenic activity in rat assessed as average number of ulcers formed at 50 mg/kg, sc qd for 4 days post 18 hrs fasting measured after 4 days; type: toxicity, organism-based; conditions: in vivo, 96 h
[22] = Ulcerogenic activity in rat assessed as average severity of ulcers formed at 50 mg/kg, sc qd for 4 days post 18 hrs fasting measured after 4 days; type: toxicity, organism-based; conditions: in vivo, 96 h
[23] = Hepatotoxicity in rat assessed as effect on bile ducts at 50 mg/kg by hematoxylin and eosin staining based assay; type: toxicity, organism-based; conditions: in vivo

Chain of Prostaglandin G/H synthase 1 (P23219 whole entry): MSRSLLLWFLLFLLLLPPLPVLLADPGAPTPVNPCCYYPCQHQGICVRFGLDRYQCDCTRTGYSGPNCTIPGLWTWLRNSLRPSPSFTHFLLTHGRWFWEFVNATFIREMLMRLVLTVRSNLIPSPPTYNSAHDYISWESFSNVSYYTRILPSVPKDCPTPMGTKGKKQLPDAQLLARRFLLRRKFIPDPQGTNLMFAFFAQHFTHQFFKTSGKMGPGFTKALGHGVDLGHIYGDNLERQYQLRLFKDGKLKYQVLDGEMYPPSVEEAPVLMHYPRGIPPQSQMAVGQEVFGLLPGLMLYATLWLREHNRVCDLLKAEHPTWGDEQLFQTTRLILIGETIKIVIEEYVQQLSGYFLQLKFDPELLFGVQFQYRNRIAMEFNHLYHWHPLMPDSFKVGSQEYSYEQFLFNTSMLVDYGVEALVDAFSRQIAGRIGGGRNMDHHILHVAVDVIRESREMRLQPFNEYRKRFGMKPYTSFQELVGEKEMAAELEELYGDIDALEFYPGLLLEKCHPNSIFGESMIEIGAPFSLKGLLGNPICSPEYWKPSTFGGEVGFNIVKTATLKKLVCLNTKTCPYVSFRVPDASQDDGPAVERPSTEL

| SMILES | Activity [1] | Activity [2] | UI [3] | inhibition in vivo at 100 mg/kg [5] | inhibition in vivo at 100 mg/kg [6] | Activity [7] | inhibition in vivo at 100 mg/kg [9] | Activity [11] | Activity [12] | Activity [13] | Activity [14] | Activity [15] | Activity [16] | Activity [17] | inhibition in vivo at 100 mg/kg [18] | inhibition in vivo at 100 mg/kg [19] | Activity [20] | Activity [21] | Activity [22] | Activity [23] | further results |
| --- | --- | --- | --- | --- | --- | --- | --- | --- | --- | --- | --- | --- | --- | --- | --- | --- | --- | --- | --- | --- | --- |
| O=C(/C=C/c1cn(-c2ccccc2)nc1-c1ccc(OCc2ccccc2)cc1)c1ccccc1 | Non-Toxic | 2% | 2.8 | 81.7% | 32.5% | Non-Toxic | 23.8% | Non-Toxic | Non-Toxic | Non-Toxic | Non-Toxic | Non-Toxic | Non-Toxic | Non-Toxic | 51.2% | 58.2% | Non-Toxic | 0.4 | 0.4 | Non-Toxic | Ratio IC50 [4]: 8.22; IC50 [8]: 1880 nM; IC50 [10]: 15500 nM |
| Nc1nc(-c2ccccc2)cc(-c2cn(-c3ccccc3)nc2-c2ccc(OCc3ccccc3)cc2)n1 | Toxic | 2% | 3.2 | 82% | 33.6% | Toxic | 40.2% | Toxic | Toxic | Toxic | Toxic | Toxic | Toxic | Toxic | 83.9% | 74.4% | Toxic | 0.6 | 0.6 | Toxic | Ratio IC50 [4]: 5.89; IC50 [8]: 2800 nM; IC50 [10]: 16500 nM |
| S=c1nc(-c2ccc(Cl)cc2)cc(-c2cn(-c3ccccc3)nc2-c2ccc(OCc3ccccc3)cc2)[nH]1 | Toxic | 4% | 6.4 | 42.2% | 15.5% | Toxic | 24.7% | Toxic | Toxic | Toxic | Toxic | Toxic | Toxic | Toxic | 41.8% | 54.4% | Toxic | 1.2 | 1.2 | Toxic | Ratio IC50 [4]: 6.54; IC50 [8]: 1100 nM; IC50 [10]: 7200 nM |
| O=C(/C=C/c1cn(-c2ccccc2)nc1-c1ccc(OCc2ccccc2)cc1)c1ccc(Cl)cc1 | Non-Toxic | 2% | 2.4 | 89.7% | 41.4% | Non-Toxic | 48.6% | Non-Toxic | Non-Toxic | Non-Toxic | Non-Toxic | Non-Toxic | Non-Toxic | Non-Toxic | 69.9% | 77.1% | Non-Toxic | 0.2 | 0.2 | Non-Toxic | Ratio IC50 [4]: 9.32; IC50 [8]: 600 nM; IC50 [10]: 5590 nM |
| Clc1ccc(-c2cc(-c3cn(-c4ccccc4)nc3-c3ccc(OCc4ccccc4)cc3)on2)cc1 | Toxic | 6% | 8.4 | 69.8% | 45% | Toxic | 48.7% | Toxic | Toxic | Toxic | Toxic | Toxic | Toxic | Toxic | 42.9% | 70.9% | Toxic | 1.2 | 1.2 | Toxic | Ratio IC50 [4]: 2.31; IC50 [8]: 1250 nM; IC50 [10]: 2890 nM |
| CC(=O)n1nc(-c2ccccc2)cc1-c1cn(-c2ccccc2)nc1-c1ccc(OCc2ccccc2)cc1 | Toxic | 4% | 6 | 78.3% | 57.7% | Toxic | 55.2% | Toxic | Toxic | Toxic | Toxic | Toxic | Toxic | Toxic | 59.8% | 64.6% | Toxic | 0.8 | 1.2 | Toxic | Ratio IC50 [4]: 6.74; IC50 [8]: 1930 nM; IC50 [10]: 13000 nM |
| COc1ccc2c(c1)c(CC(=O)O)c(C)n2C(=O)c1ccc(Cl)cc1 [INDOMETHACIN] | Toxic | 10% | 17.6 | 80.2% | 55.6% | Toxic | 62.5% | Toxic | Toxic | Toxic | Toxic | Toxic | Toxic | Toxic | 65.2% | 79.8% | Toxic | 5 | 2.6 | Toxic |  |
| N#CC1=C(N)OC(c2ccccc2)=CC1c1cn(-c2ccccc2)nc1-c1ccc(OCc2ccccc2)cc1 (stereo unspecified) | Toxic | 4% | 5.2 | 69% | 28.2% | Toxic | 42.9% | Toxic | Toxic | Toxic | Toxic | Toxic | Toxic | Toxic | 54.5% | 59.5% | Toxic | 0.8 | 0.4 | Toxic | Ratio IC50 [4]: 5.58; IC50 [8]: 720 nM; IC50 [10]: 4020 nM |
| Cc1ccc(-c2cc(C(F)(F)F)nn2-c2ccc(S(N)(=O)=O)cc2)cc1 [CELECOXIB] | Toxic | 2% | 3.2 | 56.1% | 34.6% | Toxic | 44.9% | Toxic | Toxic | Toxic | Toxic | Toxic | Toxic | Toxic | 48.1% | 58.5% | Toxic | 0.6 | 0.6 | Toxic |  |
